Data as given in patent US9925192B2, “Method for treating cancer” (Merck Sharp & Dohme Corp., priority 2014, dated 2018).

Legend:
Su-DHL-4 DLBCL cells = experiment: In vitro cell viability (Cell Titer Glo), 8 hours of compound treatment; assay type: cell-based; details: Homo sapiens, read-out: % Viability Remaining (8 hr), mean
Protocol: (§1) All cell lines were grown in exponential growth phase.

H128 SCLC cells = experiment: as above; assay type: cell-based; details: Homo sapiens, read-out: % Viability Remaining (8 hr), mean
Protocol: as §1

H82 SCLC cells = experiment: as above; assay type: cell-based; details: Homo sapiens, read-out: % Viability Remaining (8 hr), mean
Protocol: as §1

Su-DHL-8 DLBCL cells = experiment: as above; assay type: cell-based; details: Homo sapiens, read-out: % Viability Remaining (8 hr), mean
Protocol: as §1

H146 SCLC cells = experiment: as above; assay type: cell-based; details: Homo sapiens, read-out: % Viability Remaining (8 hr), mean
Protocol: as §1

[1] = tested on: NCI-H82 human Small Cell Lung Cancer (SCLC) xenograft; experiment: NCI-H82 human Small Cell Lung Cancer xenograft model; assay type: in vivo, mouse; details: dinaciclib 40 mg/kg ip q4d, ABT-199 100 mg/kg po qd
Protocol: (§2) The cells were cultured in tissue culture flasks in a humidified incubator at 37° C., in an atmosphere of 5% CO2 and 95% air.
(§3) Body weight was measured at least twice weekly.

[2] = tested on: TOLEDO human Diffuse Large B-Cell Lymphoma (DLBCL) xenograft; experiment: Toledo human DLBCL xenograft model; details: dinaciclib 40 mg/kg ip q4d, ABT-199 100 mg/kg po qd, alone or combined
Protocol: Eight week old female SCID beige mice (Fox Chase SCID® Beige) with body weights ranging from 18.0 to 22 grams were used for this study. Toledo tumor cells were grown to mid-log phase in RPMI-1640 medium containing 10% fetal bovine serum, 100 units/mL penicillin G, 100 μg/mL streptomycin sulfate, and 10 mM sodium pyruvate. The cells were cultured in tissue culture flasks in a humidified incubator at 37° C., in an atmosphere of 5% CO2 and 95% air. Mice were implanted subcutaneously in the right flank with 5×10e^6 tumor cells in 50% matrigel in a total volume of 0.1 ml. Twenty-eight days after inoculation, mice were randomized into groups when tumors reached an average tumor volume of ˜160 mm^3.
Dinaciclib, formulated in 20% hydroxypropyl beta-cyclodextrin (HPBCD), was dosed at 40 mg/kg intraperitoneal (ip) every four days (q4d). […] Both test agents were administered at 10 ml/kg.
Tumor volume (TV) was measured twice a week using calipers. Tumor volume was calculated by the elliptical formula: Tumor Volume=width2×length/2. Body weight was measured at least twice weekly. […] Statistical Analysis of Tumor Growth Inhibition (TGI) was analyzed by one-way ANOVA followed by Tukey's multiple comparison test.

[3] = tested on: SUDHL4 human Diffuse Large B-Cell Lymphoma (DLBCL) xenograft; assay type: in vivo; details: dinaciclib 40 mg/kg ip q4d, ABT-199 100 mg/kg po qd, dosing for eleven days, combination measured on day 18
Protocol: as §2, §3

With `CCc1cnn2c(NCc3ccc[n+]([O-])c3)cc(N3CCCC[C@H]3CCO)nc12` [dinaciclib, (S)-(−)-2-(1-{3-ethyl-7-[(1-oxy-pyridin-3-ylmethyl)amino]pyrazolo[1,5-a]pyrimidin-5-yl}piperidin-2-yl)ethanol] the viability at 0.1 µM (Su-DHL-4 DLBCL cells; Su-DHL-4 DLBCL, dinaciclib 0.1 uM, 8 hr) was 53.5%, the viability at 0.1 µM (H128 SCLC cells; NCI-H128, H128 SCLC, dinaciclib 0.1 uM, 8 hr) was 114% and the viability at 0.1 µM (H82 SCLC cells; H82 SCLC, dinaciclib 0.1 uM, 8 hr) was 64.7%. The viability at 0.1 µM (Su-DHL-8 DLBCL cells; Su-DHL-8 DLBCL, dinaciclib 0.1 uM, 8 hr) was 126% and the viability at 0.1 µM (H146 SCLC cells; NCI-H146, H146 SCLC, dinaciclib 0.1 uM, 8 hr) was 118%.

In the case of `CC1(C)CCC(CN2CCN(c3ccc(C(=O)NS(=O)(=O)c4ccc(NCC5CCOCC5)c([N+](=O)[O-])c4)c(Oc4cnc5[nH]ccc5c4)c3)CC2)=C(c2ccc(Cl)cc2)C1` [ABT-199, 4-(4-{[2-(4-chlorophenyl)-4,4-dimethylcyclohex-1-en-1-yl]methyl}piperazin-1-yl)-N-({3-nitro-4-[(tetrahydro-2H-pyran-4-ylmethyl)amino]phenyl}sulfonyl)-2-(1H-pyrrolo[2,3-b]pyridin-5-yloxy)benzamide], the “Effect on tumor growth (single agents)” value [1] is reported as “no effect on tumor growth”, the “Anti-tumor effect (tumor volume)” value [2] is reported as “provided anti-tumor effects” and the viability at 1 µM (Su-DHL-4 DLBCL cells; SU-DHL-4, 8 h) is reported as 85.4%. The viability at 1 µM (H128 SCLC cells; NCI-H128, 8 h) was 95.4%, the viability at 1 µM (H82 SCLC cells; 8 h) was 111% and the viability at 1 µM (Su-DHL-8 DLBCL cells; SU-DHL-8, 8 h) was 99.4%. For the same compound, the viability at 1 µM (H146 SCLC cells; NCI-H146, 8 h) was 92.6% and the “Anti-tumor effect (tumor volume)” value [3] was “single agent activity”.
